According to PubChem BioAssay (NCI):
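Grown in 96-well plates, cells were treated for 48 hours with each compound at five concentrations. Insufficient inhibition: endpoint recorded as highest concentration tested. TGI is the concentration that stops growth completely.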

Columns and labels:
Assay in all cases: inhibition of tumour cell growth, NCI panel, 48 h
A498 renal = tested on: A498 renal
HOP-92 NSCLC = tested on: HOP-92 NSCLC
IGROV1 ovarian = tested on: IGROV1 ovarian
KM12 colon = tested on: KM12 colon
MALME-3M melanoma = tested on: MALME-3M melanoma
MDA-N = tested on: MDA-N
MOLT-4 leukemia = tested on: MOLT-4 leukemia
OVCAR-8 ovarian = tested on: OVCAR-8 ovarian
RXF 393 renal = tested on: RXF 393 renal
SK-OV-3 ovarian = tested on: SK-OV-3 ovarian
SNB-75 CNS = tested on: SNB-75 CNS
SR leukemia = tested on: SR leukemia
UACC-62 melanoma = tested on: UACC-62 melanoma

Row | SMILES | TGI (A498 renal) | TGI (HOP-92 NSCLC) | TGI (IGROV1 ovarian) | TGI (KM12 colon) | TGI (MALME-3M melanoma) | TGI (MDA-N) | TGI (MOLT-4 leukemia) | TGI (OVCAR-8 ovarian) | TGI (RXF 393 renal) | TGI (SK-OV-3 ovarian) | TGI (SNB-75 CNS) | TGI (SR leukemia) | TGI (UACC-62 melanoma)
1 | CCOC(=O)/C=C/CCO[Si](C)(C)C(C)(C)C | > 100 µM | > 100 µM | > 100 µM | > 100 µM | > 100 µM | > 100 µM | > 100 µM | > 100 µM | > 100 µM | > 100 µM | > 100 µM | > 100 µM | > 100 µM
2 | CC1=NC(=Cc2ccccc2O)C(=O)N1n1c(-c2ccccc2)nc2ccccc2c1=O | > 100 µM | > 100 µM | > 100 µM | > 100 µM | > 100 µM | > 100 µM | > 100 µM | > 100 µM | > 100 µM | > 100 µM | > 100 µM | > 100 µM | 34.6 µM
3 | O=C(N/N=C/c1ccc([N+](=O)[O-])cc1)Nc1ccc(C(=O)O)cc1 | 65.1 µM | 92.1 µM | > 100 µM | > 100 µM | > 100 µM | > 100 µM | > 100 µM | > 100 µM | > 100 µM | 70.8 µM | > 100 µM | > 100 µM | > 100 µM
4 | Oc1[nH]c2ccccc2c1N=NC(=S)Nc1ccccc1Cl | 35.4 µM | 56.2 µM | 29.8 µM | 14.9 µM | 21.8 µM | > 100 µM | 4.95 µM | 17.9 µM | 31.4 µM | 35.5 µM | 16.1 µM | 1.16 µM | 20.6 µM
5 | COC(=O)[C@]1(NC(=O)c2ccccc2)C[C@H]1C=O | > 100 µM | > 100 µM | > 100 µM | > 100 µM | > 100 µM | > 100 µM | > 100 µM | > 100 µM | > 100 µM | > 100 µM | > 100 µM | 53.9 µM | > 100 µM
6 | O=[N+]([O-])c1ccc(C(=S)Nc2ccccc2)o1 | 32.2 µM | 31.8 µM | 17.8 µM | 6.88 µM | 9.3 µM | 9.53 µM | 11.7 µM | 10.6 µM | 15.2 µM | 24 µM | 30.4 µM | 10 µM | 11.4 µM
7 | Clc1cc(Cl)cc(N=C/C=C/Nc2cc(Cl)cc(Cl)c2)c1 | 57.3 µM | > 100 µM | 55.8 µM | 30.2 µM | > 100 µM | 38.6 µM | 49.6 µM | 42.5 µM | 36.8 µM | 89 µM | 39.3 µM | 86.4 µM | 48 µM
8 | c1ccc2oc(-c3ccc(-c4nc5ccccc5o4)c4c3CC4)nc2c1 | > 100 µM | > 100 µM | > 100 µM | > 100 µM | > 100 µM | > 100 µM | > 100 µM | > 100 µM | > 100 µM | > 100 µM | > 100 µM | > 100 µM | > 100 µM
9 | Cc1cc(N(CCC#N)CCC#N)ccc1/C(N=Nc1cccc(Cl)c1)=N/NC(=O)c1cc(Cl)ccc1O | 53.1 µM | 43.1 µM | 10.2 µM | 35.4 µM | 28.1 µM | > 100 µM | 34.8 µM | 49.2 µM | 35.3 µM | 90.6 µM | 42.1 µM | > 100 µM | 28.9 µM
10 | c1cc2nnc1SCCCSc1ccc(nn1)SCCCS2 | > 100 µM | > 100 µM | > 81.3 µM | > 100 µM | > 100 µM | > 100 µM | > 100 µM | > 100 µM | 75.5 µM | 92.3 µM | > 56.6 µM | > 100 µM | > 77.6 µM
11 | N[C@H](C(=O)O)[C@@H]1CC(Br)=NO1 | > 100 µM | > 100 µM | > 100 µM | > 100 µM | > 100 µM | > 100 µM | > 100 µM | > 100 µM | > 100 µM | > 100 µM | > 100 µM | > 100 µM | > 100 µM
12 | CC(=O)C1=CN=C2C(=O)N(c3ccccc3)N(C)C12C (centres undefined) | > 100 µM | > 100 µM | > 100 µM | 46.8 µM | > 100 µM | > 100 µM | > 100 µM | > 100 µM | > 100 µM | > 100 µM | > 100 µM | > 100 µM | > 100 µM
13 | CC(=O)OCC(=O)O[C@@H]1[C@H]2[C@@H](OC(=O)c3ccccc3)[C@@H](C)C[C@]2(O)[C@H](OC(C)=O)[C@@]2(C)C(OC(C)=O)[C@]1(OC(C)=O)C[C@H]1C(=O)C(C)(C)C[C@@H]12 (some centres undefined) | > 50 µM | > 50 µM | > 50 µM | > 50 µM | > 50 µM | > 50 µM | > 50 µM | > 50 µM | > 50 µM | > 50 µM | > 50 µM | > 50 µM | > 50 µM
